# System: HCT116 cells
# Experiment: HCT116 cytotoxic activity assay (Alamar Blue, 72 h)
# Type: cell-based
# Settings: Homo sapiens, HCT-116, 72 h compound exposure, greater than 500 nM but less than or equal to 2 μM
# Experimental: Representative compounds of this invention were tested for cytotoxicity using the above-described assay procedure with the following results: […]
row,SMILES,IC50 [nM]
1,"COc1ccccc1-c1cc(Nc2cccc(Oc3ccnc(C(N)=O)c3)c2)nc(N)n1 [Example 291, 4-(3-{[2-amino-6-(2-methoxyphenyl)pyrimidin-4-yl]amino}phenoxy) pyridine-2-carboxamide]",500 to 2000
2,"N#CCc1ccc(-c2cc(Nc3cccc(Oc4ccnc(C(N)=O)c4)c3)nc(N)n2)cc1 [Example 294, 4-[3-({2-amino-6-[4-(cyanomethyl)phenyl]pyrimidin-4-yl}amino)phenoxy]pyridine-2-carboxamide]",500 to 2000
3,"NC(=O)c1cc(Oc2cccc(Nc3cc(-c4cccnc4)nc(N)n3)c2)ccn1 [Example 297, 4-{3-[(2-amino-6-pyridin-3-ylpyrimidin-4-yl)amino]phenoxy} pyridine-2-carboxamide]",500 to 2000
4,"COc1ccc(OC)c(-c2cc(Nc3cccc(Oc4ccnc(C(N)=O)c4)c3)nc(N)n2)c1 [Example 300, 4-(3-{[2-amino-6-(2,5-dimethoxyphenyl)pyrimidin-4-yl]amino}phenoxy)pyridine-2-carboxamide]",500 to 2000
5,"Cc1cc(Oc2ccc(Nc3cc(-c4ccc(Oc5ccccc5)cc4)nc(N)n3)cc2)ccn1 [Example 304, N4*-{4-[(2-methylpyridin-4-yl)oxy]phenyl}-6-(4-phenoxyphenyl) pyrimidine-2,4-diamine]",500 to 2000
6,"Cc1cc(Oc2ccc(Nc3cc(-c4cccc(O)c4)nc(N)n3)cc2)ccn1 [Example 306, 3-[2-amino-6-({4-[(2-methylpyridin-4-yl)oxy]phenyl}amino)pyrimidin-4-yl]phenol]",500 to 2000
7,"CC(=O)Nc1ccc(-c2cc(Nc3ccc(Oc4ccnc(C)c4)cc3)nc(N)n2)cc1 [Example 308, N-{4-[2-amino-6-({4-[(2-methylpyridin-4-yl)oxy]phenyl}amino)pyrimidin-4-yl]phenyl} acetamide]",500 to 2000
8,"Cc1cc(Oc2ccc(Nc3cc(-c4ccccc4OC(F)(F)F)nc(N)n3)cc2)ccn1 [Example 309, N4-{4-[(2-methylpyridin-4-yl)oxy]phenyl}-6-[2-(trifluoromethoxy)phenyl]pyrimidine-2,4-diamine]",500 to 2000
9,"COc1ccc(-c2cc(Nc3ccc(Oc4ccnc(C)c4)cc3)nc(N)n2)cc1OC [Example 319, 6-(3,4-dimethoxyphenyl)-N4*-{4-[(2-methylpyridin-4-yl)oxy]phenyl} pyrimidine-2,4-diamine]",500 to 2000
10,"Cc1cc(Oc2ccc(Nc3cc(-c4ccccc4N)nc(N)n3)cc2)ccn1 [Example 322, 6-(2-aminophenyl)-N4*-{4-[(2-methylpyridin-4-yl)oxy]phenyl} pyrimidine-2,4-diamine]",500 to 2000
11,"Cc1cc(Oc2ccc(Nc3cc(-c4cccc(OC(C)C)c4)nc(N)n3)cc2)ccn1 [Example 324, 6-(3-isopropoxyphenyl)-N4*-{4-[(2-methylpyridin-4-yl)oxy]phenyl} pyrimidine-2,4-diamine]",500 to 2000
12,"Cc1cc(Oc2ccc(Nc3cc(-c4cccc(OC(F)(F)F)c4)nc(N)n3)cc2)ccn1 [Example 325, N4*-{4-[(2-methylpyridin-4-yl)oxy]phenyl}-6-[3-(trifluoromethoxy)phenyl]pyrimidine-2,4-diamine]",500 to 2000

# Same assay, conditions: Homo sapiens, HCT-116, 72 h compound exposure, greater than 2 μM
row,SMILES,IC50 [nM]
1,"CC(C)c1ccc(-c2cc(Nc3cccc(Oc4ccnc(C(N)=O)c4)c3)nc(N)n2)cc1 [Example 293, 4-(3-{[2-amino-6-(4-isopropylphenyl)pyrimidin-4-yl]amino}phenoxy) pyridine-2-carboxamide]",> 2000
2,"Cc1ccc(-c2cc(Nc3cccc(Oc4ccnc(C(N)=O)c4)c3)nc(N)n2)cc1 [Example 295, 4-(3-{[2-amino-6-(4-methylphenyl)pyrimidin-4-yl]amino}phenoxy) pyridine-2-carboxamide]",> 2000
3,"CC(C)c1cccc(-c2cc(Nc3cccc(Oc4ccnc(C(N)=O)c4)c3)nc(N)n2)c1 [Example 299, 4-(3-{[2-amino-6-(3-isopropylphenyl)pyrimidin-4-yl]amino}phenoxy) pyridine-2-carboxamide]",> 2000
4,"NC(=O)c1cc(Oc2cccc(Nc3cc(-c4ccc[nH]4)nc(N)n3)c2)ccn1 [Example 301, 4-(3-{[2-amino-6-(1H-pyrrol-2-yl)pyrimidin-4-yl]amino}phenoxy) pyridine-2-carboxamide]",> 2000
5,"NC(=O)c1cc(Oc2cccc(Nc3cc(-c4ccc(Cl)c(Cl)c4)nc(N)n3)c2)ccn1 [Example 303, 4-(3-{[2-amino-6-(3,4-dichlorophenyl)pyrimidin-4-yl]amino}phenoxy)pyridine-2-carboxamide]",> 2000
6,"Cc1cc(Oc2ccc(Nc3cc(-c4ccc(OC(F)(F)F)cc4)nc(N)n3)cc2)ccn1 [Example 307, N4*-{4-[(2-methylpyridin-4-yl)oxy]phenyl}-6-[4-(trifluoromethoxy)phenyl]pyrimidine-2,4-diamine]",> 2000
7,"Cc1cc(Oc2ccc(Nc3cc(-c4cccc(C(F)(F)F)c4)nc(N)n3)cc2)ccn1 [Example 314, N4*-{4-[(2-methylpyridin-4-yl)oxy]phenyl}-6-[3-(trifluoromethyl)phenyl] pyrimidine-2,4-diamine]",> 2000

# Same assay, conditions: Homo sapiens, HCT-116, 72 h compound exposure, less than or equal to 500 nM
row,SMILES,IC50 [nM]
1,"Cc1ccccc1-c1cc(Nc2cccc(Oc3ccnc(C(N)=O)c3)c2)nc(N)n1 [Example 290, 4-(3-{[2-amino-6-(2-methylphenyl)pyrimidin-4-yl]amino}phenoxy) pyridine-2-carboxamide]",≤ 500
2,"COc1cccc(-c2cc(Nc3cccc(Oc4ccnc(C(N)=O)c4)c3)nc(N)n2)c1 [Example 292, 4-(3-{[2-amino-6-(3-methoxyphenyl)pyrimidin-4-yl]amino}phenoxy) pyridine-2-carboxamide]",≤ 500
3,"Cc1cccc(-c2cc(Nc3cccc(Oc4ccnc(C(N)=O)c4)c3)nc(N)n2)c1 [Example 296, 4-(3-{[2-amino-6-(3-methylphenyl)pyrimidin-4-yl]amino}phenoxy) pyridine-2-carboxamide]",≤ 500
4,"NC(=O)c1cc(Oc2cccc(Nc3cc(-c4ccsc4)nc(N)n3)c2)ccn1 [Example 298, 4-(3-{[2-amino-6-(3-thienyl)pyrimidin-4-yl]amino}phenoxy) pyridine-2-carboxamide]",≤ 500
5,"Cc1ccc(-c2cc(Nc3cccc(Oc4ccnc(C(N)=O)c4)c3)nc(N)n2)cc1N [Example 302, 4-(3-{[2-amino-6-(3-amino-4-methylphenyl)pyrimidin-4-yl]amino}phenoxy)pyridine-2-carboxamide]",≤ 500
6,"Cc1cc(Oc2ccc(Nc3cc(-c4cccc(N(C)C)c4)nc(N)n3)cc2)ccn1 [Example 305, 6-[3-(dimethylamino)phenyl]-N4*- {4-[(2-methylpyridin-4-yl)oxy]phenyl}pyrimidine-2,4-diamine]",≤ 500
7,"Cc1cc(Oc2ccc(Nc3cc(-c4ccc(O)cc4)nc(N)n3)cc2)ccn1 [Example 310, 4-[2-amino-6-({4-[(2-methylpyridin-4-yl)oxy]phenyl}amino)pyrimidin-4-yl]phenol]",≤ 500
8,"COc1ccc(-c2cc(Nc3ccc(Oc4ccnc(C)c4)cc3)nc(N)n2)cn1 [Example 312, 6-(6-methoxypyridin-3-yl)-N4*-{4-[(2-methylpyridin-4-yl)oxy]phenyl} pyrimidine-2,4-diamine]",≤ 500
9,"Cc1cc(Oc2ccc(Nc3cc(-c4ccc(N)cc4)nc(N)n3)cc2)ccn1 [Example 313, 6-(4-aminophenyl)-N4*-{4-[(2-methylpyridin-4-yl)oxy]phenyl} pyrimidine-2,4-diamine]",≤ 500
10,"Cc1cc(Oc2ccc(Nc3cc(-c4cccc(F)c4)nc(N)n3)cc2)ccn1 [Example 315, 6-(3-fluorophenyl)-N4*-{4-[(2-methylpyridin-4-yl)oxy]phenyl} pyrimidine-2,4-diamine]",≤ 500
11,"COc1cccc(-c2cc(Nc3ccc(Oc4ccnc(C)c4)cc3)nc(N)n2)c1 [Example 316, 6-(3-methoxyphenyl)-N4*-{4-[(2-methylpyridin-4-yl)oxy]phenyl} pyrimidine-2,4-diamine]",≤ 500
12,"CCc1ccc(-c2cc(Nc3ccc(Oc4ccnc(C)c4)cc3)nc(N)n2)cc1 [Example 317, 6-(4-ethylphenyl)-N4*-{4-[(2-methylpyridin-4-yl)oxy]phenyl} pyrimidine-2,4-diamine]",≤ 500
13,"Cc1cc(Oc2ccc(Nc3cc(-c4ccc(N(C)C)cc4)nc(N)n3)cc2)ccn1 [Example 318, 6-[4-(dimethylamino)phenyl]-N4*- {4-[(2-methylpyridin-4-yl)oxy]phenyl}pyrimidine-2,4-diamine]",≤ 500
14,"Cc1cc(Oc2ccc(Nc3cc(-c4cccc(N)c4)nc(N)n3)cc2)ccn1 [Example 320, 6-(3-aminophenyl)-N4*-{4-[(2-methylpyridin-4-yl)oxy]phenyl} pyrimidine-2,4-diamine]",≤ 500
15,"Cc1cc(Oc2ccc(Nc3cc(-c4ccoc4)nc(N)n3)cc2)ccn1 [Example 321, 6-(3-furyl)-N4*-{4-[(2-methylpyridin-4-yl)oxy]phenyl} pyrimidine-2,4-diamine]",≤ 500
16,"Cc1cc(Oc2ccc(Nc3cc(-c4ccc(C)c(N)c4)nc(N)n3)cc2)ccn1 [Example 323, 6-(3-amino-4-methylphenyl)-N4*-{4-[(2-methylpyridin-4-yl)oxy]phenyl} pyrimidine-2,4-diamine]",≤ 500
17,"Nc1nc(Nc2ccc(Oc3ccnc(Cl)c3)cc2)cc(-c2ccc(OS(N)(=O)=O)cc2)n1 [Example 332, 4-[2-amino-6-({4-[(2-chloropyridin-4-yl)oxy]phenyl}amino)pyrimidin-4-yl]phenyl sulfamate]",≤ 500
